# How the values were obtained:
# [1] = test system: wheat lines with S653(At)N mutation in AHASL1A; experiment: herbicide spray assay, greenhouse-grown mutagenized wheat lines; assay type: in vivo, Triticum aestivum; settings: 0-9 rating scale (0=no injury; 9=highest injury); after spraying with imazamox; mutation in 1A
# Procedure: (§1) The most common mutation observed in wheat results in a Ser to Asn substitution at the position equivalent to Ser653 in Arabidopsis (termed S653(At)N). Typically, 24 individuals from each mutagenized line were scored on a 0-9 rating scale (0=no injury; 9=highest injury) after spraying with a rate of imazamox sufficient for detecting differences in the greenhouse-grown plants (FIG. 4). For each line, the specific gene mutated was determined. A clear correlation was found between the ratings from herbicide spray assays and the specific homoeolog that was mutated at this position.
# [2] = test system: wheat lines with S653(At)N mutation in AHASL1B; experiment: as above; assay type: in vivo, Triticum aestivum; settings: 0-9 rating scale (0=no injury; 9=highest injury); after spraying with imazamox; mutation in 1B
# Procedure: as §1
# [3] = test system: wheat lines with S653(At)N mutation in AHASL1D; experiment: as above; assay type: in vivo, Triticum aestivum; settings: 0-9 rating scale (0=no injury; 9=highest injury), after spraying with imazamox
# Procedure: as §1
# [4] = test system: AHAS of S653(At)N mutant in AHASL1A; experiment: AHAS assay on extracts of S653(At)N mutants; assay type: biochemical, Triticum aestivum; settings: 100 μM imazapyr, several backgrounds
# Description: (§2) The deletions, insertions, and substitutions of the protein sequences encompassed herein are not expected to produce radical changes in the characteristics of the protein. However, when it is difficult to predict the exact effect of the substitution, deletion, or insertion in advance of doing so, one skilled in the art will appreciate that the effect will be evaluated by routine screening assays. That is, AHASL function can be evaluated by AHAS enzyme activity assays in the presence and absence of an imidazolinone herbicide. See, for example, Singh et al. ((1988) Anal. Biochem. 171:173-179), herein incorporated by reference.
# (§3) To obtain an understanding of the effect of each mutation on the level of enzyme sensitivity to the herbicides, AHAS assays were performed on S653(At)N mutants in all three genes using individuals from several backgrounds (representative data in FIG. 6A). […] Also, a double mutant between 1A and 1D retained 63% of AHAS activity (Pozniak et al. submitted). […] In durum wheat (T. turgidum) each homeolog appears to contribute equally to the AHAS pool (FIG. 6B).
# [5] = test system: AHAS of S653(At)N mutant in AHASL1B; experiment: AHAS assay on extracts of S653(At)N mutants; assay type: biochemical, Triticum aestivum
# Description: as §2, §3
# [6] = test system: AHAS of S653(At)N mutant in AHASL1D; experiment: AHAS assay on extracts of S653(At)N mutants; assay type: biochemical, Triticum aestivum
# Description: as §2, §3
# [7] = test system: AHAS of double mutant between 1A and 1D; settings: herbicide not restated, follows the 100 μM imazethapyr sentence; cited from earlier work
smiles,measurement,setting,value
COCc1cnc(C2=NC(C)(C(C)C)C(=O)N2)c(C(=O)O)c1 (stereo not drawn) [imazamox],median injury,[1],6.4
same,median injury,[2],5.4
same,median injury,[3],4.0
CC(C)C1(C)N=C(c2ncccc2C(=O)O)NC1=O (stereo not drawn) [imazapyr],AHAS activity in the presence of herbicide,[4],33%
same,AHAS activity in the presence of herbicide,"[5]; 100 μM imazapyr, AHASL1B S653(At)N mutant, several backgrounds",25%
same,AHAS activity in the presence of herbicide (level of insensitivity),"[6]; 100 μM imazapyr, AHASL1D S653(At)N mutant, several backgrounds",38%
CCc1cnc(C2=NC(C)(C(C)C)C(=O)N2)c(C(=O)O)c1 (stereo not drawn) [imazethapyr],AHAS activity in the presence of herbicide,"[5]; 100 μM imazethapyr, AHAS1B mutant extract, CDC Teal background",30%
same,AHAS activity in the presence of herbicide,"[6]; 100 μM imazethapyr, AHAS1D mutant extract, CDC Teal background",40%
same,AHAS activity retained,[7],63%

# From US20060010514A1, “Polynucleotides encoding mature AHASL proteins for creating imidazolinone-tolerant plants” (BASF Plant Science GmbH, priority 2004, published 2006)
